For assay [1], the target named is T1, Protein kinase C alpha type (Homo sapiens, UniProt P17252). Put plainly: Displacement of [3H]- PDBu from Protein kinase C alpha C1a domain. Background: In a radioligand displacement assay an active substance lowers the binding of a labelled ligand.
Assay [2] concerns the target T1, Protein kinase C alpha type. Put plainly: Displacement of [3H]- PDBu from Protein kinase C alpha C1b domain.
For assay [3], the target named is T2, Protein kinase C delta type (Homo sapiens, UniProt Q05655). Kind of assay: Displacement of [3H]- PDBu from Protein kinase C delta C1a domain.
T2 sequence (Q05655 whole entry, the tested form may be a part): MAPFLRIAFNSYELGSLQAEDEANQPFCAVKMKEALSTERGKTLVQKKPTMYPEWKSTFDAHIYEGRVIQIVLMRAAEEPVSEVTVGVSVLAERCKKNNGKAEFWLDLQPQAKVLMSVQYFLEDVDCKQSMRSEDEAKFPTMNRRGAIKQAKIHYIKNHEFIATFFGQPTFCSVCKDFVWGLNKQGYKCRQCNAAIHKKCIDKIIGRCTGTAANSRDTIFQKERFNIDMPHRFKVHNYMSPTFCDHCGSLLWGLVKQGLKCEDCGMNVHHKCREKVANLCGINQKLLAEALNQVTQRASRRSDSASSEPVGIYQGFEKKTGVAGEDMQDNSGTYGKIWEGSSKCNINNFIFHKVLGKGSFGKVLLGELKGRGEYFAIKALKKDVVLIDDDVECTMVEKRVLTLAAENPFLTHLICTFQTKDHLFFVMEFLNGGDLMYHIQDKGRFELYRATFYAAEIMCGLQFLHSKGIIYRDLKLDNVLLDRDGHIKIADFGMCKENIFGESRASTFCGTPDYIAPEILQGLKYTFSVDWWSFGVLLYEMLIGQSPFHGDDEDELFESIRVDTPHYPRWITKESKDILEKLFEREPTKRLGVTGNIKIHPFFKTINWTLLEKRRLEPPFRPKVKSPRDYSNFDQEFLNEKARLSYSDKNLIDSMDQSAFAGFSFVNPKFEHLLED
Assay [4] concerns the target T3, Protein kinase C eta type (Homo sapiens, UniProt P24723). Put plainly: Displacement of [3H]- PDBu from Protein kinase C eta C1a domain.
Assay [5] addresses T3, Protein kinase C eta type. Kind of assay: Displacement of [3H]- PDBu from Protein kinase C eta C1b domain.
For assay [6], the target named is T4, Protein kinase C beta type (Homo sapiens, UniProt P05771). Kind of assay: Displacement of [3H]- PDBu from Protein kinase C beta C1b domain.
T4 sequence (P05771 whole entry, the tested form may be a part): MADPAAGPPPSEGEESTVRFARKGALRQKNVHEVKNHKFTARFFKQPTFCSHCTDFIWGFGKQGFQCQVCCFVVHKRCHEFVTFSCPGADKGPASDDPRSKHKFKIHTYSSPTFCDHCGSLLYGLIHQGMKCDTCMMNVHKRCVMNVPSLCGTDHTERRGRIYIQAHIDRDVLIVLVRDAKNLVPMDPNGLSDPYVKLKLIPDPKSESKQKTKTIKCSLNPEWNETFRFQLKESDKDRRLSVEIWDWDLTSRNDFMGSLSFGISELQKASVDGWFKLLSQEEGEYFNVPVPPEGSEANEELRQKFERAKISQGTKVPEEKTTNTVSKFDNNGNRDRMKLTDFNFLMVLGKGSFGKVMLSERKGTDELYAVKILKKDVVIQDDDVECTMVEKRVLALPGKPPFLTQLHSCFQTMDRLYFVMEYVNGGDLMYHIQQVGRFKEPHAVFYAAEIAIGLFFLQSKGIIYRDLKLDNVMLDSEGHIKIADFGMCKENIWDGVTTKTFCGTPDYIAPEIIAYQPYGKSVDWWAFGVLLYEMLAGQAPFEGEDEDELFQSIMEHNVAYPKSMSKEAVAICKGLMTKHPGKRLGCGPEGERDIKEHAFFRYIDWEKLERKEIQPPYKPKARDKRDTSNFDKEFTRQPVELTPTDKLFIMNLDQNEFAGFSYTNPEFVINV
In assay [7] the target is T4, Protein kinase C beta type. Put plainly: Displacement of [3H]- PDBu from Protein kinase C beta C1a domain.
In assay [8] the target is T2, Protein kinase C delta type. Put plainly: Displacement of [3H]- PDBu from Protein kinase C delta C1b domain.
Assay [9] has as its target Protein kinase C theta type (Homo sapiens, UniProt Q04759). Put plainly: Displacement of [3H]- PDBu from Protein kinase C theta C1b domain.
Assay [10] deals with T5, Protein kinase C gamma type (Homo sapiens, UniProt P05129). Kind of assay: Displacement of [3H]- PDBu from Protein kinase C gamma C1a domain.
Assay [11] has as its target T5, Protein kinase C gamma type. Put plainly: Displacement of [3H]- PDBu from Protein kinase C gamma C1b domain.
Assay [12] deals with T6, Protein kinase C epsilon type (Homo sapiens, UniProt Q02156).
T6 sequence (Q02156 whole entry): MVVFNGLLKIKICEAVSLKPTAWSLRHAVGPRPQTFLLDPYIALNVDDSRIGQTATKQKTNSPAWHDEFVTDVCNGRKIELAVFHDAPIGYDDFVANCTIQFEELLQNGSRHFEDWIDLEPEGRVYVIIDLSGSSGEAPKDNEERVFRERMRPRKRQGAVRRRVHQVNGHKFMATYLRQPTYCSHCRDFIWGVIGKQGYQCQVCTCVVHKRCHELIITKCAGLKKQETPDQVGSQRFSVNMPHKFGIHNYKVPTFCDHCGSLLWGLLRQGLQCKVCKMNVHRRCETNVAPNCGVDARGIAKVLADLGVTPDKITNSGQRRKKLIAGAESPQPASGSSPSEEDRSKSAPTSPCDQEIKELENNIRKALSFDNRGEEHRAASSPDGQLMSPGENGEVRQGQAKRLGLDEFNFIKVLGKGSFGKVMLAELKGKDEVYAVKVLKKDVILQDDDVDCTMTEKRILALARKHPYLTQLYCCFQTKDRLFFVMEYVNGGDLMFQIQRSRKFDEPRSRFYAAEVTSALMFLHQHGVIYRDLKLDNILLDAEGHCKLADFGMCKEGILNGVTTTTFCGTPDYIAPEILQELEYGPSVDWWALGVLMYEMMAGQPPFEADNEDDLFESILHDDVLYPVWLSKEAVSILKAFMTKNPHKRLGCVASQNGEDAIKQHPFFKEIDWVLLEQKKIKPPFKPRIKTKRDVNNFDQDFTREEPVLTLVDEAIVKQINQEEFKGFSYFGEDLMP
Kind of assay: Displacement of [3H]- PDBu from Protein kinase C epsilon C1a domain.

Assay [13] has as its target T6, Protein kinase C epsilon type. Put plainly: Displacement of [3H]- PDBu from Protein kinase C epsilon C1b domain.

The structures appear in SMILES notation.

The term Ki denotes a measure of affinity in units of concentration, obtained from inhibition or displacement. High values mean lower affinity, low ones higher affinity.

T3 sequence (P24723 whole entry, the tested form may be a part): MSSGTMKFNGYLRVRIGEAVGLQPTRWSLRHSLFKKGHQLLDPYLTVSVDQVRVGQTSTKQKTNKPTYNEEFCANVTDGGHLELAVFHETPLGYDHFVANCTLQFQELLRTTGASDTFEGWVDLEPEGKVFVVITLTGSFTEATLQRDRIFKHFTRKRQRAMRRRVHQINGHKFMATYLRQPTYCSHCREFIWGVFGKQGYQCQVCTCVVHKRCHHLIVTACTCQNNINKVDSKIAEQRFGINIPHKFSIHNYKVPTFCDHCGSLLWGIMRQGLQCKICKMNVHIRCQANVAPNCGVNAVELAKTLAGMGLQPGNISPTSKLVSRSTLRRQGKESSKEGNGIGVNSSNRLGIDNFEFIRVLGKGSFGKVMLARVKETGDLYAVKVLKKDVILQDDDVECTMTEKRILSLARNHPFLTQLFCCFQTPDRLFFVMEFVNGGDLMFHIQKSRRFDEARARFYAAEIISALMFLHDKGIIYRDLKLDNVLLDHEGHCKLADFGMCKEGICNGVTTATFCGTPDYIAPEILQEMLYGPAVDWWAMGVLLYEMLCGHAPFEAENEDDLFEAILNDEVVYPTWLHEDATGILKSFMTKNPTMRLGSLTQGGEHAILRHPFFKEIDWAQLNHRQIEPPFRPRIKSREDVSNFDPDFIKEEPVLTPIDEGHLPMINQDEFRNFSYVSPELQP
Sequence of Protein kinase C theta type (Q04759 whole entry, the tested form may be a part): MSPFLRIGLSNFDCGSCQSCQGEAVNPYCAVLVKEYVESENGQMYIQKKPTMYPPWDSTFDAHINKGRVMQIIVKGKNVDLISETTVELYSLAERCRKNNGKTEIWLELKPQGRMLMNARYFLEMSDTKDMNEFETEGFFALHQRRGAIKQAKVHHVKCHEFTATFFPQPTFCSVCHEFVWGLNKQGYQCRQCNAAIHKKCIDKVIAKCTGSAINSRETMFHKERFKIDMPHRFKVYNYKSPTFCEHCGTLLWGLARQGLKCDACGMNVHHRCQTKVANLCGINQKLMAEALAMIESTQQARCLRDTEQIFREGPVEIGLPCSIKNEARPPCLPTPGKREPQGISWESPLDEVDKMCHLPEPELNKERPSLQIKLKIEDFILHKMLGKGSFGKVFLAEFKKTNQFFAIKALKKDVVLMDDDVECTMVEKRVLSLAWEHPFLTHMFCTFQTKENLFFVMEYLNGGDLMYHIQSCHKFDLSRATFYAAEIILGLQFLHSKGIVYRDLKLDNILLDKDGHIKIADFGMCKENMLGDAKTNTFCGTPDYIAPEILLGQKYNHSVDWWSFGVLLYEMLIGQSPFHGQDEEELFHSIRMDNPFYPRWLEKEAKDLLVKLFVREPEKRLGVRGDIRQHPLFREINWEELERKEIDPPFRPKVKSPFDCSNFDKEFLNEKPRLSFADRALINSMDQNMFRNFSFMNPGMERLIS

In the case of `CC(C)[C@H]1C(=S)N[C@H](CO)Cc2c[nH]c3cccc(c23)N1C`, the Ki in assay [1] is 261 nM; in assay [2] it was 2140 nM; in assay [3], 2950 nM; in assay [4], 2160 nM; in assay [5], 20.6 nM; in assay [6], 226 nM. Further, the inhibition constant Ki in assay [7] is 180 nM; in assay [8] it was 67.5 nM; in assay [9], 61.6 nM; in assay [10] it was 296 nM; in assay [11] it was 288 nM; in assay [12], 3860 nM. In assay [13], this compound displayed a Ki of 41.5 nM.

Consider `CC(C)[C@H]1C(=O)N[C@H](CO)Cc2c[nH]c3cccc(c23)N1C` [INDOLACTUM], for which the Ki in assay [1] was determined as 127 nM; in assay [2], 4000 nM; in assay [3], 1900 nM; in [4], 3770 nM; in assay [5] it was 5.5 nM; in assay [6] it was 136 nM. Moreover, the inhibition constant Ki in [7] worked out at 173 nM; in assay [8] it was 8.3 nM; in assay [9] it was 8.7 nM; in [10] it was 138 nM; in assay [11], 213 nM; in [12] it was 4110 nM. This compound gave a Ki in assay [13] of 7.7 nM.

Values taken from ChEMBL document CHEMBL1133311, “Synthesis and PKC isozyme surrogate binding of indothiolactam-V, a new thioamide analogue of tumor promoting indolactam-V” (Bioorg Med Chem Lett, 2000).
